Legend:
[1] = system: A549 human alveolar epithelial cell; assay: Growth inhibition (cytotoxicity), A549 assay, Cell Titer Glo; type: cell-based; details: A549, 72 h, A549 cells, 72 hour incubation
Description: (§1) The cytotoxicity of each of the MC compounds as described herein was evaluated in the following cell types: A549 human alveolar epithelial cell, PC3 human prostate carcinoma cell, COLO205 human colon adenocarcinoma cell, HEPG2 human hepatoma, OVCAR3 human ovary adenocarcinoma cell, and HL60 human acute myelocytic leukemia (AML) cell.
(§2) A549, PC3, COLO205 and HEPG2 cells were cultured in DMEM (Invitrogen Corporation) with 10% fetal bovine serum, whereas OVCAR3 and HL60 were cultured in the same medium but with 20% fetal bovine serum. For cytotoxocoty measurements the cells were seeded in 96 or 384 well tissue culture treated microtitre plates overnight. Compounds were diluted in appropriate buffers and added to the cells the next day. Following a further 72 hour incubation, cell viability was determined using Cell Titer Glo (Promega Corporation) according to the manufacturers' instructions, and the luminescence measured in Luminoskan Ascent (Thermo Fisher Scientific Inc.).

[2] = system: OVCAR3 human ovary adenocarcinoma cell; assay: Growth inhibition (cytotoxicity), OVCAR3 assay, Cell Titer Glo; type: cell-based; details: Homo sapiens, OVCAR-3, 72 h, OVCAR3 cells, 72 hour incubation
Description: as §1, §2

[3] = system: PC3 human prostate carcinoma cell; assay: Growth inhibition (cytotoxicity), PC3A assay, Cell Titer Glo; type: cell-based; details: PC-3, 72 h, PC3 cells, 72 hour incubation
Description: as §1, §2

[4] = Microsomal stability assay; type: in vitro ADME; details: human, human liver microsomes, pH 7.4, human liver microsomes, 37° C.; for half-life at 50 μM: read-out: T1/2, 50 μm microsomal stability assay
Description: 50 μL test sample (50 mM), 25 μL human liver microsomes (20 mg/ml, BD Gentest, catalog no. 452161), 281 μL potassium phosphate buffer (100 mM, pH 7.4), 5 μL NaDPH regenerating system, solution B (BD Biosciences, catalog no. 451200), and 114 μL of water were pre-incubated for 5 min at 37° C. The reaction was initiated by the addition of 25 μL NaDPH regenerating system, solution A (BD Biosciences, catalog no. 451220). After an incubation period of 0, 15, 30, and 60 min at 37° C., 100 μL of the reaction mixture was transferred to an eppendorf tube, followed by addition of 100 μL chilled acetonitrile to quench the reaction. The sample was then centrifuged at 14,000 rpm for 5 min. The supernatant was submitted for LCMS analysis.

[5] = Stability determination at PBS pH7.2; type: physicochemical; details: PBS pH 7.2, pH 7.2, PBS pH7.2, 37° C.; read-out: T1/2, PBS buffer stability assay
Description: Around 0.1 mg of the dried sample was placed in a 2-mL vial, added with 1 mL of PBS pH7.2 and then mixed using a Vortex mixer. The mixture was filtered through a 4 mm Nylon filter with 0.2 μm pore size and the filtrate collected in an hplc vial. The vial was placed in an hplc autosampler maintained at 37° C. just before injection (time=0 h). The stability of the sample was calculated by determining the amount left in solution at specific time intervals. This study was carried out in three trials with the buffer solution as a blank.

| Structure (SMILES) | IC50 [1] [nM] | half-life at 50 μM [4] [min] | other results |
| --- | --- | --- | --- |
| CC[C@H](OC)[C@@H](C)[C@H]1O[C@@H]1C(NCc1c(Cl)cccc1Cl)C(C)(O)/C=C/C=C(\C)C1OC(=O)C[C@H](O)CC[C@@](C)(O)[C@@H](OC(C)=O)/C=C/[C@@H]1C (single isomer, unassigned) [MC-018a] | ≤ 1000 |  |  |
| CC[C@H](OC)[C@@H](C)[C@H]1O[C@@H]1C(NCCc1ccc(Cl)cc1Cl)C(C)(O)/C=C/C=C(\C)C1OC(=O)C[C@H](O)CC[C@@](C)(O)[C@@H](OC(C)=O)/C=C/[C@@H]1C (single isomer, unassigned) [MC-017b] | ≤ 1000 |  |  |
| CC[C@H](OC)[C@@H](C)[C@H]1O[C@@H]1C(N(CCCO)Cc1ccc(Cl)cc1)C(C)(O)/C=C/C=C(\C)[C@H]1OC(=O)C[C@H](O)CC[C@@](C)(O)[C@@H](OC(C)=O)/C=C/[C@@H]1C (some centres unmarked) [MC-045] | ≤ 1000 |  |  |
| CC[C@H](OC)[C@@H](C)[C@H]1O[C@@H]1C(NCc1ccc(NC2CC2)cc1)C(C)(O)/C=C/C=C(\C)C1OC(=O)C[C@H](O)CC[C@@](C)(O)[C@@H](OC(C)=O)/C=C/[C@@H]1C (single isomer, unassigned) [MC-044a] | ≤ 1000 |  |  |
| CC[C@H](OC)[C@@H](C)[C@H]1O[C@@H]1C(NCc1ccc2c(c1)OCO2)C(C)(O)/C=C/C=C(\C)C1OC(=O)C[C@H](O)CC[C@@](C)(O)[C@@H](OC(C)=O)/C=C/[C@@H]1C.O=CO (single isomer, unassigned) [MC-030a] |  | > 30 | IC50 [2]: ≤ 100 nM; IC50 [3]: ≤ 100 nM |
| CC[C@H](OC)[C@@H](C)[C@H]1O[C@@H]1C(NCc1ccc(N2CC(C)OC(C)C2)cc1)C(C)(O)/C=C/C=C(\C)C1OC(=O)C[C@H](O)CC[C@@](C)(O)[C@@H](OC(C)=O)/C=C/[C@@H]1C (some centres unmarked) [MC-042c] | ≤ 1000 |  |  |
| CC[C@H](OC)[C@@H](C)[C@H]1O[C@@H]1C(NCc1ccc(C)c(F)c1)C(C)(O)/C=C/C=C(\C)[C@H]1OC(=O)C[C@H](O)CC[C@@](C)(O)[C@@H](OC(C)=O)/C=C/[C@@H]1C.O=CO (stereo in doubt) [MC-031] |  | > 30 | IC50 [2]: ≤ 100 nM; IC50 [3]: ≤ 100 nM; half-life at 0.1 mg/mL [5]: > 30 min |
| CC[C@H](OC)[C@@H](C)[C@H]1O[C@@H]1C1C(Cc2ccccc2)C(=O)OC1(C)/C=C/C=C(\C)C1OC(=O)C[C@H](O)CC[C@@](C)(O)[C@@H](OC(C)=O)/C=C/[C@@H]1C (single isomer, unassigned) [MC-012a] | ≤ 1000 |  |  |
| CC[C@H](OC)[C@@H](C)[C@H]1O[C@@H]1C(NCc1ccccc1)C(C)(/C=C/C=C(\C)[C@H]1OC(=O)C[C@H](O)CCC(C)(O)[C@@H](OC(C)=O)/C=C/[C@@H]1C)NCc1ccccc1 (some centres unmarked) [MC-001] | ≤ 1000 |  |  |
| CC[C@H](OC)[C@@H](C)[C@H]1O[C@@H]1C(NCc1ccc(F)c(F)c1)C(C)(O)/C=C/C=C(\C)[C@H]1OC(=O)C[C@H](O)CC[C@@](C)(O)[C@@H](OC(C)=O)/C=C/[C@@H]1C.O=CO (some centres unmarked) [MC-029] |  | > 30 | IC50 [2]: ≤ 100 nM; IC50 [3]: ≤ 100 nM |
| CC[C@H](OC)[C@@H](C)[C@H]1O[C@@H]1C(NCc1ccc(N2CCOCC2)cc1)C(C)(O)/C=C/C=C(\C)C1OC(=O)C[C@H](O)CC[C@@](C)(O)[C@@H](OC(C)=O)/C=C/[C@@H]1C (some centres unmarked) [MC-037d] |  | > 30 |  |
| CC[C@H](OC)[C@@H](C)[C@H]1O[C@@H]1C(NCc1ccc(Cl)cc1F)C(C)(O)/C=C/C=C(\C)[C@H]1OC(=O)C[C@H](O)CC[C@@](C)(O)[C@@H](OC(C)=O)/C=C/[C@@H]1C.O=CO (some centres unmarked) [MC-032] |  | > 30 | IC50 [2]: ≤ 100 nM; IC50 [3]: ≤ 100 nM |
| CC[C@H](OC)[C@@H](C)[C@H]1O[C@@H]1C(NCC1CCCCCC1)C(C)(O)/C=C/C=C(\C)[C@H]1OC(=O)C[C@H](O)CC[C@@](C)(O)[C@@H](OC(C)=O)/C=C/[C@@H]1C.O=CO (some centres unmarked) [MC-034] | ≤ 1000 |  | half-life at 5 μM ([4]; 5 μm, read-out: T1/2, 5 μm microsomal stability assay): 6.1 min |
| CC[C@H](OC)[C@@H](C)[C@H]1O[C@@H]1C(NCc1ccc(N2CCCNCC2)cc1)C(C)(O)/C=C/C=C(\C)C1OC(=O)C[C@H](O)CC[C@@](C)(O)[C@@H](OC(C)=O)/C=C/[C@@H]1C (single isomer, unassigned) [MC-041a] | ≤ 1000 |  |  |
| CC[C@H](OC)[C@@H](C)[C@H]1O[C@@H]1C(NS(=O)(=O)c1ccc(F)c(F)c1)C(C)(O)/C=C/C=C(\C)C1OC(=O)C[C@H](O)CCC(C)(O)[C@@H](OC(C)=O)/C=C/[C@@H]1C (some centres unmarked) [MC-58b] | ≤ 1000 |  |  |
| CC[C@H](OC)[C@@H](C)[C@H]1O[C@@H]1C(NCc1ccc2[nH]ccc2c1)C(C)(O)/C=C/C=C(\C)C1OC(=O)C[C@H](O)CC[C@@](C)(O)[C@@H](OC(C)=O)/C=C/[C@@H]1C (some centres unmarked) [MC-043c] | ≤ 1000 |  |  |
| CC[C@H](OC)[C@@H](C)[C@H]1O[C@@H]1C(NCc1ccc2[nH]ccc2c1)C(C)(O)/C=C/C=C(\C)C1OC(=O)C[C@H](O)CC[C@@](C)(O)[C@@H](OC(C)=O)/C=C/[C@@H]1C.O=CO (single isomer, unassigned) [MC-043a] |  | > 30 |  |
| CC[C@H](OC)[C@@H](C)[C@H]1O[C@@H]1C(NCCCN1CCOCC1)C(C)(O)/C=C/C=C(\C)C1OC(=O)C[C@H](O)CC[C@@](C)(O)[C@@H](OC(C)=O)/C=C/[C@@H]1C.O=CO (single isomer, unassigned) [MC-009b] |  | > 30 |  |
| CC[C@H](OC)[C@@H](C)[C@H]1O[C@@H]1C(NCc1ccc2c(c1)OCO2)C(C)(O)/C=C/C=C(\C)C1OC(=O)C[C@H](O)CC[C@@](C)(O)[C@@H](OC(C)=O)/C=C/[C@@H]1C (some centres unmarked) [MC-030] |  |  | half-life at 0.1 mg/mL [5]: > 30 min |
| CC[C@H](OC)[C@@H](C)[C@H]1O[C@@H]1C(NCc1ccc(Br)cc1)C(C)(O)/C=C/C=C(\C)C1OC(=O)C[C@H](O)CC[C@@](C)(O)[C@@H](OC(C)=O)/C=C/[C@@H]1C.O=CO (single isomer, unassigned) [MC-014b] |  | > 30 |  |
| CC[C@H](OC)[C@@H](C)[C@H]1O[C@@H]1C(N(CCO)Cc1ccc(C(F)(F)F)cc1)C(C)(O)/C=C/C=C(\C)[C@H]1OC(=O)C[C@H](O)CCC(C)(O)[C@@H](OC(C)=O)/C=C/[C@@H]1C (stereo in doubt) [MC-053] | ≤ 1000 |  |  |
| CC[C@H](OC)[C@@H](C)[C@H]1O[C@@H]1C(NCc1ccc(N2CCOCC2)cc1)C(C)(O)/C=C/C=C(\C)C1OC(=O)C[C@H](O)CC[C@@](C)(O)[C@@H](OC(C)=O)/C=C/[C@@H]1C (some centres unmarked) [MC-037] |  |  | half-life at 0.1 mg/mL [5]: > 30 min |
| CC[C@H](OC)[C@@H](C)[C@H]1O[C@@H]1C(N(CCO)Cc1ccc2ccccc2c1)C(C)(O)/C=C/C=C(\C)[C@H]1OC(=O)C[C@H](O)CCC(C)(O)[C@@H](OC(C)=O)/C=C/[C@@H]1C (stereo in doubt) [MC-051] | ≤ 1000 |  |  |
| CC[C@H](OC)[C@@H](C)C1O[C@@H]1C(N(C)Cc1ccc(Cl)cc1)C(C)(O)/C=C/C=C(\C)[C@H]1OC(=O)C[C@H](O)CC[C@@](C)(O)[C@@H](OC(C)=O)/C=C/[C@@H]1C (stereo in doubt) [MC-047] |  |  | half-life at 0.1 mg/mL [5]: > 30 min |
| CC[C@H](OC)[C@@H](C)C1O[C@@H]1C(NCc1ccc(Cl)nc1)C(C)(O)/C=C/C=C(\C)[C@H]1OC(=O)C[C@H](O)CC[C@@](C)(O)[C@@H](OC(C)=O)/C=C/[C@@H]1C (stereo in doubt) [MC-046] |  |  | half-life at 0.1 mg/mL [5]: > 30 min |
| CC[C@H](OC)[C@@H](C)[C@H]1O[C@@H]1C(NCc1ccc2[nH]ccc2c1)C(C)(O)/C=C/C=C(\C)C1OC(=O)C[C@H](O)CC[C@@](C)(O)[C@@H](OC(C)=O)/C=C/[C@@H]1C (some centres unmarked) [MC-043] |  |  | half-life at 0.1 mg/mL [5]: > 30 min |
| CC[C@H](OC)[C@@H](C)[C@H]1O[C@@H]1C(NCc1cccc(Cl)c1)C(C)(O)/C=C/C=C(\C)C1OC(=O)C[C@H](O)CC[C@@](C)(O)[C@@H](OC(C)=O)/C=C/[C@@H]1C (single isomer, unassigned) [MC-027a] | ≤ 1000 |  |  |
| CC[C@H](OC)[C@@H](C)[C@H]1O[C@@H]1C(NCc1ccc(Cl)nc1)C(C)(O)/C=C/C=C(\C)C1OC(=O)C[C@H](O)CC[C@@](C)(O)[C@@H](OC(C)=O)/C=C/[C@@H]1C.O=CO (single isomer, unassigned) [MC-046a] |  | > 30 |  |

Source: patent publication US20110237566A1, “Therapeutic Macrolide Compounds and Their Use” (MERLION PHARMACEUTICALS PTE LTD, priority 2008, published 2011)
